{"source": "paper PMC4150253", "about": "(ChemMedChem, 2014)", "format_in_all_cases": "biochemical", "key": {"FL-Tip60 (1-512 aa)": {"target": "FL-Tip60 (1-512 aa) (Homo sapiens, UniProt Q92993)", "sequence (Q92993 1-512)": "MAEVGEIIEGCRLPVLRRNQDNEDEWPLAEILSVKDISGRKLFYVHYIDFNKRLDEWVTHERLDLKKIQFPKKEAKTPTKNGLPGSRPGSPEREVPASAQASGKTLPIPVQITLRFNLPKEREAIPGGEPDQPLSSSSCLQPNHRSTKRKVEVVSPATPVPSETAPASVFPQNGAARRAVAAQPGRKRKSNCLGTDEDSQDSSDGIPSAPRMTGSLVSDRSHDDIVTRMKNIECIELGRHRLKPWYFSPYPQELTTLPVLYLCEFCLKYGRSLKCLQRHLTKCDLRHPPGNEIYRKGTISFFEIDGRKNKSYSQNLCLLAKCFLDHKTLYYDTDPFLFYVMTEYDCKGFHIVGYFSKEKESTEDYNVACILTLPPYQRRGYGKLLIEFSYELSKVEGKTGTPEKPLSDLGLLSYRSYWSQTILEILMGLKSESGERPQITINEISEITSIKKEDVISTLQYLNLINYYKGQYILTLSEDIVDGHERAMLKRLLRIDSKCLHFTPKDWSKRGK", "experiment": "Radiometric filter binding HAT assay, full-length Tip60"}, "CAT-Tip60 (221-512 aa)": {"target": "CAT-Tip60 (221-512 aa) (Homo sapiens, UniProt Q92993)", "sequence (Q92993 221-512)": "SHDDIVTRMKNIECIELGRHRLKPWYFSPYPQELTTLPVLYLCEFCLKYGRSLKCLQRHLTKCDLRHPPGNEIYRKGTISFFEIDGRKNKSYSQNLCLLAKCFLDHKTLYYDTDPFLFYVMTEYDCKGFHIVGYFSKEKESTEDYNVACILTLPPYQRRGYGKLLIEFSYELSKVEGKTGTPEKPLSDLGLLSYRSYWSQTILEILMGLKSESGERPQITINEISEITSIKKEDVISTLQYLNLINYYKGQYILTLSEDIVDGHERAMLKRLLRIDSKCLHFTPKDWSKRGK", "experiment": "Radiometric filter binding HAT assay, Tip60 catalytic domain"}, "[1]": {"target": "PCAF HAT domain (493-658) (Homo sapiens, UniProt Q92831)", "sequence (Q92831 493-658)": "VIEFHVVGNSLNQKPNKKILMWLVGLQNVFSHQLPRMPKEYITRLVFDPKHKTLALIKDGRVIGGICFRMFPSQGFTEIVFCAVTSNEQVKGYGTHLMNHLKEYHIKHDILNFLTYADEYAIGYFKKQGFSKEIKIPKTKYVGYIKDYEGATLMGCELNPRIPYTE", "experiment": "Radiometric HAT assay, PCAF HAT domain"}}}
{"smiles": "CC(C)(COP(=O)(O)OP(=O)(O)OC[C@H]1O[C@@H](n2cnc3c(N)ncnc32)[C@H](O)[C@@H]1OP(=O)(O)O)[C@@H](O)C(=O)NCCC(=O)NCCS", "note": "[CoASH]", "values": [{"measurement": "IC50", "setting": "FL-Tip60 (1-512 aa)", "result": "9.1 ± 1", "unit": "µM"}, {"measurement": "IC50", "setting": "CAT-Tip60 (221-512 aa)", "result": "16 ± 3.1", "unit": "µM"}, {"measurement": "IC50", "setting": "[1]", "result": "8.4 ± 0.4", "unit": "µM"}]}
